# Measured values published in article doi:10.1101/2021.04.08.439011v1 (biorxiv, 2021).
# Tests used:
# ABL1(M351T) = ABL1(M351T) (Homo sapiens, UniProt P00519, M351T); conditions: phosphorylated; 1 µM; binder
# AMPK-alpha1 = AMPK-alpha1 (Homo sapiens, UniProt Q13131); conditions: 1 µM; binder
# CASK = CASK (Homo sapiens, UniProt O14936); conditions: 1 µM; binder
# CDK4-cyclinD3 = CDK4-cyclinD3 (Homo sapiens, UniProt P11802); conditions: 1 µM; binder
# CDKL1 = CDKL1 (Homo sapiens, UniProt Q00532); conditions: 1 µM; binder
# CSNK1D = CSNK1D (Homo sapiens, UniProt P48730); conditions: 1 µM; binder
# EPHA2 = EPHA2 (Homo sapiens, UniProt P29317); conditions: 1 µM; binder
# FGFR1 = FGFR1 (Homo sapiens, UniProt P11362); conditions: 1 µM; binder
# Chain of FGFR1 (P11362 whole entry): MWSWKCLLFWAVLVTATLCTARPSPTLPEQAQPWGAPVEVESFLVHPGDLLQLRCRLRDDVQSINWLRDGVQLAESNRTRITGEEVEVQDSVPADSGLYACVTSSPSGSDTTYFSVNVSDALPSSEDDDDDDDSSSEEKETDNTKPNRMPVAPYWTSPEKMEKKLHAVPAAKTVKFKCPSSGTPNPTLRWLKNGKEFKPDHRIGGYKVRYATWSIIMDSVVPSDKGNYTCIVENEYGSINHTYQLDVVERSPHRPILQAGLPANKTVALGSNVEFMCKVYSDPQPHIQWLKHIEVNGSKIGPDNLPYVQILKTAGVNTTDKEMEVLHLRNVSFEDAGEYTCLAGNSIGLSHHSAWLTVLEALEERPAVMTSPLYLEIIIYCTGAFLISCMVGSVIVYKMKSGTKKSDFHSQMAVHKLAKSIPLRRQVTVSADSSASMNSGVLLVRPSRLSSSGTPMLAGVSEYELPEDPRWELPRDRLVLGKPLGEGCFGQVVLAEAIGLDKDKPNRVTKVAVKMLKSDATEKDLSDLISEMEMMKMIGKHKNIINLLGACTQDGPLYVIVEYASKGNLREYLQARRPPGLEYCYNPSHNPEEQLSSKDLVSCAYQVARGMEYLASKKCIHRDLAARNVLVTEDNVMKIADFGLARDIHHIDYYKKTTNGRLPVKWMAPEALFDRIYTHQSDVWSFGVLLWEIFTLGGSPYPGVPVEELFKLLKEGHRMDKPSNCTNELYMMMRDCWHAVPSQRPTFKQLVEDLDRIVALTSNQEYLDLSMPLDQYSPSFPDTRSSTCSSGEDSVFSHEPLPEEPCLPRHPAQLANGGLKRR
# FGFR3 = FGFR3 (Homo sapiens, UniProt P22607); conditions: 1 µM; binder
# FLT3(ITD) = FLT3(ITD) (Homo sapiens, UniProt P36888); conditions: 1 µM; binder
# FLT3(R834Q) = FLT3(R834Q) (Homo sapiens, UniProt P36888, R834Q); conditions: 1 µM; binder
# IKK-epsilon = IKK-epsilon (Homo sapiens, UniProt Q14164); conditions: 1 µM; binder
# IRAK3 = IRAK3 (Homo sapiens, UniProt Q9Y616); conditions: 1 µM; binder
# Chain of IRAK3 (Q9Y616 whole entry): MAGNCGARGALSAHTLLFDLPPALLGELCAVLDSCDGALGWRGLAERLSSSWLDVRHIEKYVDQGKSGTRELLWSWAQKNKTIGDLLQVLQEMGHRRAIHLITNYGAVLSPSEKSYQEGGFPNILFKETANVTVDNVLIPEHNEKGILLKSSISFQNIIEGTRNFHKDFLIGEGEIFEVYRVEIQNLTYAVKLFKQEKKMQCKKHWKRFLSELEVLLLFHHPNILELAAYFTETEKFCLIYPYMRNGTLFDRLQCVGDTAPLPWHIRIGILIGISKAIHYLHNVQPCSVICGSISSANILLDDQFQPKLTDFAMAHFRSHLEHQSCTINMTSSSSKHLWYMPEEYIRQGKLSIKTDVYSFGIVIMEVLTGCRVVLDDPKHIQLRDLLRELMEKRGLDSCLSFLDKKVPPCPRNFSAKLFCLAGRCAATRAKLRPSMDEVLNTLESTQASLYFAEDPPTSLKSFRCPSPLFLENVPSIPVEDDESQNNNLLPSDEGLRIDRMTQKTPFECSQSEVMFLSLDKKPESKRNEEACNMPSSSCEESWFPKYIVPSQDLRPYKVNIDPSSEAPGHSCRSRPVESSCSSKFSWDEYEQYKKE
# LRRK2 = LRRK2 (Homo sapiens, UniProt Q5S007); conditions: 1 µM; binder
# LRRK2(G2019S) = LRRK2(G2019S) (Homo sapiens, UniProt Q5S007, G2019S); conditions: 1 µM; binder
# MAP3K1 = MAP3K1 (Homo sapiens, UniProt Q13233); conditions: 1 µM; binder
# Chain of MAP3K1 (Q13233 whole entry): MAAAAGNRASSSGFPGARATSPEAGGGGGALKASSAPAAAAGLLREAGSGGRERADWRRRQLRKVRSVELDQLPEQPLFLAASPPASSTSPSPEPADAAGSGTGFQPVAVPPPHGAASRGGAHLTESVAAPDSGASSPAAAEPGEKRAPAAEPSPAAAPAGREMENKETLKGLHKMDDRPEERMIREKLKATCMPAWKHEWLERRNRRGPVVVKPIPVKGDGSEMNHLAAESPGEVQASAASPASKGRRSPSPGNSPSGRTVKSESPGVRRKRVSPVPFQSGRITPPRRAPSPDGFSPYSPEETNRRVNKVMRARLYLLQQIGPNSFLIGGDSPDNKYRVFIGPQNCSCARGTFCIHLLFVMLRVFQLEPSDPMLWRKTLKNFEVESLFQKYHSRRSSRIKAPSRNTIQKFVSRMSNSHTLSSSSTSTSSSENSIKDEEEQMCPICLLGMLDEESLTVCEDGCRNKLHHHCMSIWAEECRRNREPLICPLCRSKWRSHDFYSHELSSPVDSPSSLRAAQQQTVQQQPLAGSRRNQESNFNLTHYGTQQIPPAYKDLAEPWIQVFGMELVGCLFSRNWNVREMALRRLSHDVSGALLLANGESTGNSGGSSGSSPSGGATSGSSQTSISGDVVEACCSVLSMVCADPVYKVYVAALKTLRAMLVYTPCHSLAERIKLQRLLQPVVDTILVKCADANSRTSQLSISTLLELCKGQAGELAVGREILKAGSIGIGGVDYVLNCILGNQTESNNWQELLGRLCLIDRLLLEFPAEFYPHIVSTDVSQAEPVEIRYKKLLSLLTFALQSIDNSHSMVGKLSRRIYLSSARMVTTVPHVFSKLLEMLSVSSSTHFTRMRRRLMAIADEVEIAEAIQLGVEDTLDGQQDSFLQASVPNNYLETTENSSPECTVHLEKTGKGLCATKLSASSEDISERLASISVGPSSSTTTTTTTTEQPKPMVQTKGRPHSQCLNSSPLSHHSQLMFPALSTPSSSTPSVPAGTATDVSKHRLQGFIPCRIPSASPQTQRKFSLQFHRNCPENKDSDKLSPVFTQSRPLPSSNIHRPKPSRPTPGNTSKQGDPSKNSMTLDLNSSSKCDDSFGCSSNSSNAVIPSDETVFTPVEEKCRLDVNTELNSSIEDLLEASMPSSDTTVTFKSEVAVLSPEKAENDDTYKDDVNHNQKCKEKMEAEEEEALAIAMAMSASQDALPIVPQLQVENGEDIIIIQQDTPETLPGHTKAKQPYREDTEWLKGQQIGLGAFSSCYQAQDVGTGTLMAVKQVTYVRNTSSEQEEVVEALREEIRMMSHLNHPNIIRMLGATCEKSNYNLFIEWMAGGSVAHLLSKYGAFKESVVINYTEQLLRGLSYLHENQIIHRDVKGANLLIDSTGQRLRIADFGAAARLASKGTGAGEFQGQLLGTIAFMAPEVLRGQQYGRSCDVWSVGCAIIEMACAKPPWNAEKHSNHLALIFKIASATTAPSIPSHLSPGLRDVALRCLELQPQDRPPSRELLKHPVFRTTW
# MST1R = MST1R (Homo sapiens, UniProt Q04912); conditions: 1 µM; binder
# NEK4 = NEK4 (Homo sapiens, UniProt P51957); conditions: 1 µM; binder
# PIK3CA(E545A) = PIK3CA(E545A) (Homo sapiens, UniProt P42336, E545A); conditions: 1 µM; binder
# PIK3CB = PIK3CB (Homo sapiens, UniProt P42338); conditions: 1 µM; binder
# PIM1 = PIM1 (Homo sapiens, UniProt P11309); conditions: 1 µM; binder
# Chain of PIM1 (P11309 whole entry): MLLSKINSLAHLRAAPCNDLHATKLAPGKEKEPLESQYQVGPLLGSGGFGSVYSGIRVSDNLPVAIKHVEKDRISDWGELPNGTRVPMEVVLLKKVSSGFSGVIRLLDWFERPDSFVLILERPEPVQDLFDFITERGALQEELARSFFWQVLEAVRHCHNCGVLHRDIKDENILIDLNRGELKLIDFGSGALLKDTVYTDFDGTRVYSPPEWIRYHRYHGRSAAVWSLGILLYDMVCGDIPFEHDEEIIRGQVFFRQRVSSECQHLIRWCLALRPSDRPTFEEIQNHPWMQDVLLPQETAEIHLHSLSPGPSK
# PKN2 = PKN2 (Homo sapiens, UniProt Q16513); conditions: 1 µM; binder
# PLK1 = PLK1 (Homo sapiens, UniProt P53350); conditions: 1 µM; binder
# Chain of PLK1 (P53350 whole entry): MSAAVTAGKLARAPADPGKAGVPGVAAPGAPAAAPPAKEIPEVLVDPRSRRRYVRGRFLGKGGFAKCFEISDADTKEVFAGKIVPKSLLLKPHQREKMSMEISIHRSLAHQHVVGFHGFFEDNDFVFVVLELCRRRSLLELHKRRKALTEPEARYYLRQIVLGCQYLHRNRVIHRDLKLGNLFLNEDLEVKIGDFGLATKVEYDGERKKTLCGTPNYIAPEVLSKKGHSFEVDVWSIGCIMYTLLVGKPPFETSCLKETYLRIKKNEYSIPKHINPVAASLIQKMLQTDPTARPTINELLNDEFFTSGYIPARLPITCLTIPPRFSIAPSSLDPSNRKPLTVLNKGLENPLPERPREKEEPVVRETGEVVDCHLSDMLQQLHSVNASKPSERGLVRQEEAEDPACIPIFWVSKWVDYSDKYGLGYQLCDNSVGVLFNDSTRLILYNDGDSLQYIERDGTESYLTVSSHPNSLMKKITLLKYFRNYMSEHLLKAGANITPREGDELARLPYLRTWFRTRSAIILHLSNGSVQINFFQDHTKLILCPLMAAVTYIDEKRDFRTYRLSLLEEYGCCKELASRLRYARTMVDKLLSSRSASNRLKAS
# PLK4 = PLK4 (Homo sapiens, UniProt O00444); conditions: 1 µM; binder
# SGK3 = SGK3 (Homo sapiens, UniProt Q96BR1); conditions: 1 µM; binder
# STK16 = STK16 (Homo sapiens, UniProt O75716); conditions: 1 µM; binder
# Chain of STK16 (O75716 whole entry): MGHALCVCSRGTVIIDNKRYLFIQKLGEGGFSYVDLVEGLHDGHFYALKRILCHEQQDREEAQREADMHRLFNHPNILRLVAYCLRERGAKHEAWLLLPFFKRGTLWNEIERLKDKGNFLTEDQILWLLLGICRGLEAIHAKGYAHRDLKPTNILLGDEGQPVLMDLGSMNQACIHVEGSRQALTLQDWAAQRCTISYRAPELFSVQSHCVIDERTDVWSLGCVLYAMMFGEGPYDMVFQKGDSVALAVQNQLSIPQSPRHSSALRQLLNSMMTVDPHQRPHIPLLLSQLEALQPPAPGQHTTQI
# SgK110 = SgK110 (Homo sapiens, UniProt P0C264); conditions: 1 µM; binder
# ULK2 = ULK2 (Homo sapiens, UniProt Q8IYT8); conditions: 1 µM; binder
# WEE1 = WEE1 (Homo sapiens, UniProt P30291); conditions: 1 µM; binder
# p38-delta = p38-delta (Homo sapiens, UniProt O15264); conditions: 1 µM; binder
# Chain of CASK (O14936 whole entry): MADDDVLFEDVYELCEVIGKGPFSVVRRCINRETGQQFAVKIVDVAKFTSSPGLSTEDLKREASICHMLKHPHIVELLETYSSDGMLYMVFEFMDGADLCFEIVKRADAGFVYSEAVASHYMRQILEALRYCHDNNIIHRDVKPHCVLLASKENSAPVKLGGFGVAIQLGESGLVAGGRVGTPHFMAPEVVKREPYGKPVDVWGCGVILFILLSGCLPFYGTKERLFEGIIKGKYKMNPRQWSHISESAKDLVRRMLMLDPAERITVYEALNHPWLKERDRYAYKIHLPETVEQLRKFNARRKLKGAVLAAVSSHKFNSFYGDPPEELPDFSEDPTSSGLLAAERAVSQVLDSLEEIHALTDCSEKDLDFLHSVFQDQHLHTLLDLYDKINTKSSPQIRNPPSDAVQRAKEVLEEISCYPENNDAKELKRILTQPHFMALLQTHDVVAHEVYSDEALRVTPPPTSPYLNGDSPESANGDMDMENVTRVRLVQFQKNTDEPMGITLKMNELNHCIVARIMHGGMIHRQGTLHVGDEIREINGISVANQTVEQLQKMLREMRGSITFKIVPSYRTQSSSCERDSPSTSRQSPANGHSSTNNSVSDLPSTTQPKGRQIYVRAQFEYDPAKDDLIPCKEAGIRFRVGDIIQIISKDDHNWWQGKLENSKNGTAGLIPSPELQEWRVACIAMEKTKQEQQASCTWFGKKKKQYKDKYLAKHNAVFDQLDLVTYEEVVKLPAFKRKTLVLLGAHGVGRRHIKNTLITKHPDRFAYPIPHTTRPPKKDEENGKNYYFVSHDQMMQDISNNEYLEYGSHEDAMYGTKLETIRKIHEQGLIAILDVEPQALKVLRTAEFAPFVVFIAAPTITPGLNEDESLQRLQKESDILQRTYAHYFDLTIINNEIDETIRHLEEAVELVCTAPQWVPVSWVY
smiles,measurement,setting,value
"CNc1ncc2cc(-c3ccc(-c4cccc(C)n4)cc3Cl)c(=O)n(C[C@H]3OC[C@H](N)CO3)c2n1 [compound 6, G-5555]",Percent Control,ABL1(M351T),100%
same,Percent Control,AMPK-alpha1,40%
same,Percent Control,CASK,100%
same,Percent Control,CDK4-cyclinD3,100%
same,Percent Control,CDKL1,100%
same,Percent Control,CSNK1D,100%
same,Percent Control,EPHA2,100%
same,Percent Control,FGFR1,100%
same,Percent Control,FGFR3,100%
same,Percent Control,FLT3(ITD),100%
same,Percent Control,FLT3(R834Q),100%
same,Percent Control,IKK-epsilon,78%
same,Percent Control,IRAK3,92%
same,Percent Control,LRRK2,100%
same,Percent Control,LRRK2(G2019S),100%
same,Percent Control,MAP3K1,98%
same,Percent Control,MST1R,48%
same,Percent Control,NEK4,100%
same,Percent Control,PIK3CA(E545A),90%
same,Percent Control,PIK3CB,97%
same,Percent Control,PIM1,100%
same,Percent Control,PKN2,100%
same,Percent Control,PLK1,94%
same,Percent Control,PLK4,67%
same,Percent Control,SGK3,60%
same,Percent Control,STK16,69%
same,Percent Control,SgK110,71%
same,Percent Control,ULK2,100%
same,Percent Control,WEE1,100%
same,Percent Control,p38-delta,100%
